Results as given in patent US20120220594A1, “METHODS FOR TREATING CANCER IN PATIENTS HAVING IGF-1R INHIBITOR RESISTANCE” (Bristol-Meyers Squibb Company, priority 2009, published 2012).
Like-named read-outs stand apart in the source and are kept apart here.

Key:
Rh41 cells = assay: 3H-thymidine incorporation cell proliferation assay in parental Rh41 cells; format: cell-based, human; settings: Homo sapiens
Text: (§1) Human rhabdomyosarcoma cell line Rh41 was provided by Dr. Lee Helman and grown in RPMI medium plus GLUTAMAX® supplemented with 10% fetal bovine serum (FBS), 10 mmol/L HEPES, penicillin, and streptomycin.

Rh41-807R cells = assay: 3H-thymidine incorporation cell proliferation assay in BMS-754807-resistant Rh41-807R cells; format: cell-based, human; settings: for IC50: Homo sapiens
Text: as §1

[1] = target: type I-IGF receptor (IGF-1R), as expressed by human rhabdomyosarcoma Rh41 cells and the derived resistant lines (human) (UniProt P08069); assay: cell-based or functional assay
[2] = Rh41 cells, PDGFR inhibitors, Table 7, read-out: Rh41 IC50
[3] = Rh41-807R cells, PDGFR inhibitors, Table 7, read-out: Rh41-807R IC50
[4] = Rh41 cells, cytotoxic agents and mTOR inhibitor, Table 2, read-out: Rh41 IC50
[5] = Rh41-807R cells, cytotoxic agents and mTOR inhibitor, Table 2, read-out: Rh41-807R IC50

Sequence of type I-IGF receptor (IGF-1R), as expressed by human rhabdomyosarcoma Rh41 cells and the derived resistant lines (human) (P08069 31-1367, change not shown): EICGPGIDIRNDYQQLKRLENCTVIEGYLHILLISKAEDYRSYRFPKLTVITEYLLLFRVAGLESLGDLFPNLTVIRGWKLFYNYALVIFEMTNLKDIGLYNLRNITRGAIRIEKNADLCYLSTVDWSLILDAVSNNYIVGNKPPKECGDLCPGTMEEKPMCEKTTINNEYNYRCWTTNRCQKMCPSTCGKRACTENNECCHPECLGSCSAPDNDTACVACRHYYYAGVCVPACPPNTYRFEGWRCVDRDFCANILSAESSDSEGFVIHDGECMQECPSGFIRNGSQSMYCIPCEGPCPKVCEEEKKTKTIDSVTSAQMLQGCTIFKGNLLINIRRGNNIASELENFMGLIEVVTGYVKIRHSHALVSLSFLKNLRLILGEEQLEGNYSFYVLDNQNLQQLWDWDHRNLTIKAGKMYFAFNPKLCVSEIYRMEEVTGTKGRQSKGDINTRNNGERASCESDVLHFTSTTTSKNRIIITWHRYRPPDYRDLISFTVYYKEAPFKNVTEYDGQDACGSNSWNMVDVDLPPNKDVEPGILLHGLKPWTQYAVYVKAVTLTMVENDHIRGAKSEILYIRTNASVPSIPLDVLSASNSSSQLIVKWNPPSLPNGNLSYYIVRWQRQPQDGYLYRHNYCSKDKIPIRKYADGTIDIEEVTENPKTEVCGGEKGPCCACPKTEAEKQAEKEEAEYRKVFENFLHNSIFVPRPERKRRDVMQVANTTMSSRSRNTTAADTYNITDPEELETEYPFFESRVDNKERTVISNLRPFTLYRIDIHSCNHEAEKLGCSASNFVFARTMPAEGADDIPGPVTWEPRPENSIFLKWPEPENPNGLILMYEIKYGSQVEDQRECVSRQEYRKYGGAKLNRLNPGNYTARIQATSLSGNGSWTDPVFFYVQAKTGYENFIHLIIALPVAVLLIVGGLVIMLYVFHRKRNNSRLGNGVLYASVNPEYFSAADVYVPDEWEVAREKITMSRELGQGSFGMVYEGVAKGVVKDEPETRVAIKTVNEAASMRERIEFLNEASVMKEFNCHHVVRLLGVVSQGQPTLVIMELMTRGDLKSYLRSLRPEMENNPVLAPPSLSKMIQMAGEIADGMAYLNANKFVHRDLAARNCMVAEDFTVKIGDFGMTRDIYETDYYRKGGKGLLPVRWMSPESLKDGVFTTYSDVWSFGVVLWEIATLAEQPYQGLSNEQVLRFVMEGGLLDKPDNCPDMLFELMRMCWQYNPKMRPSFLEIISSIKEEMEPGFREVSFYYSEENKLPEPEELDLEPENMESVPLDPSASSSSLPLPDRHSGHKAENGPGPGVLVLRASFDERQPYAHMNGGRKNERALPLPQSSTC

| Molecule | IC50 (Rh41 cells; [2]) | IC50 (Rh41-807R cells; [3]) | IC50 (Rh41 cells; [4]) | IC50 (Rh41-807R cells; [5]) | other results |
| --- | --- | --- | --- | --- | --- |
| CNC(=O)c1cc(Oc2ccc(NC(=O)Nc3ccc(Cl)c(C(F)(F)F)c3)cc2)ccn1 [Sorafenib] | > 2000 nM | 804 ± 210 nM |  |  |  |
| CCN(CC)CCNC(=O)c1c(C)[nH]c(/C=C2\C(=O)Nc3ccc(F)cc32)c1C [Sunitinib] | 1400 ± 634 nM | 1020 ± 321 nM |  |  |  |
| CC(=O)O[C@H]1C(=O)[C@@]2(C)[C@H]([C@H](OC(=O)c3ccccc3)[C@]3(O)C[C@H](OC(=O)[C@H](O)[C@@H](NC(=O)c4ccccc4)c4ccccc4)C(C)=C1C3(C)C)[C@]1(OC(C)=O)CO[C@@H]1C[C@@H]2O [TAXOL ®, paclitaxel] |  |  | 2.1 ± 0.4 nM | 1.8 ± 0.3 nM | sensitivity of Rh41-807R compared with the parental line (Rh41-807R cells; cytotoxic agents and mTOR inhibitor): very similar level of sensitivity as the parental line |
| CC(=O)O[C@@]12CO[C@@H]1C[C@H](O)[C@@]1(C)C(=O)[C@H](O)C3=C(C)[C@@H](OC(=O)[C@H](O)[C@@H](NC(=O)OC(C)(C)C)c4ccccc4)C[C@@](O)([C@@H](OC(=O)c4ccccc4)[C@H]21)C3(C)C [Taxotere] |  |  | 0.5 nM | 0.5 nM |  |
| CC[C@]12C=CCN3CC[C@@]4(c5cc([C@@]6(C(=O)OC)C[C@@H]7C[C@@H](C(C)(F)F)CN(Cc8c6[nH]c6ccccc86)C7)c(OC)cc5N(C)[C@H]4[C@@](O)(C(=O)OC)[C@@H]1OC(C)=O)[C@@H]32 [Vinflunine] |  |  |  |  | IC50 (Rh41 cells; Rh41, read-out: Rh41 IC50 (nM)): 28 ± 2.8 nM; IC50 (Rh41-807R cells; read-out: Rh41-807R IC50 (nM)): 21 ± 3 nM |
| MAB391 (R&D Systems), IGF-1R neutralizing antibody |  |  |  |  | IC50 (nM), growth inhibition of Rh41-807R cells, 3H-thymidine incorporation, 72 h [1]: > 2000 nM; IC50 (nM), growth inhibition of Rh41-MAB391R cells, 3H-thymidine incorporation, 72 h [1]: > 2000 nM; IC50 (nM), growth inhibition of Rh41 parental cells, 3H-thymidine incorporation, 72 h [1]: 0.1 nM |
